Laboratory results: US20250154163A1, “Pyrimidinone-Containing 17-Beta-Hydroxysteroid Dehydrogenase Type 13 Inhibitors” (ENANTA PHARMACEUTICALS, INC., priority 2023, published 2025)

Key:
[1] = target: T1, Recombinant human 17β-HSD13 (Homo sapiens, UniProt Q7Z5P4); test: 17β-HSD13 rapid-fire mass spectrometry assay (RF/MS assay); format: biochemical; settings: inhibition of 17β-HSD13, RF/MS assay; HSD17B13 80 nM, LTB4 10 μM, NAD+ 0.5 mM, RT 3 h
T1 construct: host or cells: Sf9 insect cells
T1 sequence (Q7Z5P4 20-300): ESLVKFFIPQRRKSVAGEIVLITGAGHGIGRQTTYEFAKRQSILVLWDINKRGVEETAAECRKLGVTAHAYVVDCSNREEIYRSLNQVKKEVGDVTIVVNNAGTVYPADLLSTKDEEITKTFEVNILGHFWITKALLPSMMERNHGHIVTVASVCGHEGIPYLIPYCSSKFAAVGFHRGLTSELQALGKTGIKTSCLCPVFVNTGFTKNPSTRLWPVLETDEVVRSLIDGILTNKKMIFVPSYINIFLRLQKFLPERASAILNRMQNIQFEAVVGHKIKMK
In short: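 Purified recombinant human 17β-HSD13 (sf9-expressed, 80 nM) incubated with compound (0–100 μM), 10 μM LTB4 and 0.5 mM NAD+ in 20 mM Tris pH 7.5, 0.005% BSA, 0.01% Tween-20, 3 h at RT. 12-oxo-LTB4 formation quantified by RapidFire MS/MS; percent conversion normalized to controls, IC50 from variable-slope fit, duplicates.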

[2] = system: human precision cut lung slices from a donor with idiopathic pulmonary fibrosis; test: Human precision cut lung slice (PCLS) culture, donor with idiopathic pulmonary fibrosis; format: cell-based; settings: IPF donor PCLS; FIG. 2b
Method: Human PCLS were generated from lung explants of patients with pulmonary fibrosis (donor ID #221028) or normal donor (donor ID #220730). Cryopreserved hPCLSs were obtained from Institute for In Vitro Sciences (IIVS) and maintained with air-liquid interface culture approach under 37° C., 5% CO2 and 95% humidity. hPCLS were cultured in DMEM-F12 (Invitrogen, Cat No. 11330032) containing 0.2% primocin (Invivogen, Cat No. ant-pm-1) and 1% insulin-transferrin-selenium (ITS-G; Invitrogen, Cat No. 41400045), after initial acclimation in acclimation media, including culture media supplemented with 1% antibiotic antimycotic solution (Invitrogen, Cat No. 15240062), 2 mM Hydrocortisone (Millipore Sigma,) and 5 mg/ml 2-phospho-L-abscorbic acid trisodium salt (Millipore Sigma, Cat No. 49752-10G) for 3 days. Slices of tissue were flatly grown in the tissue culture inserts with 0.4 μm pores of a 12-well plate (StemCell Technologies, Cat No. 1001027), supplemented with 100 μl culture media in the apical side containing PCLSs, and 900 μL culture media in the basal compartment. Media were changed every 48 hours. hPCLS were treated and randomly assigned in replicates of 6-8 per condition 7 days after recovery from cryopreservation. […] IPF donor PCLS were collected at day 8 for subsequent RNA isolation and gene expression quantification. […]

Structure (SMILES) | IC50 [1] | secreted fibronectin (lung fibronectin content) [2]
COc1ccc(-c2nc3sc4c(O)c(Cl)ccc4c3c(=O)n2Cc2cnco2)c(C2CC2)c1 [Example 26, 7-chloro-2-(2-cyclopropyl-4-methoxyphenyl)-8-hydroxy-3-(oxazol-5-ylmethyl)benzo[4,5]thieno[2,3-d]pyrimidin-4(3H)-one] | < 100 nM | decreased
CS(=O)(=O)c1ccc(-c2nc3sc4c(O)c(Cl)ccc4c3c(=O)n2Cc2cnc(C(F)(F)F)nc2)c(C2CC2)c1 [Example 64, 7-chloro-2-(2-cyclopropyl-4-(methylsulfonyl)phenyl)-8-hydroxy-3-((2-(trifluoromethyl)pyrimidin-5-yl)methyl)benzo[4,5]thieno[2,3-d]pyrimidin-4(3H)-one] | < 100 nM | –
